How the values were obtained:
LD50 mice = conditions: mouse, in vivo
LD50 rats = assay type: in vivo; conditions: rat, in vivo
rats [1] = test: LD50 rats; assay type: in vivo; conditions: oral
adult rats [2] = test: anti-inflammatory action, carragenin oedema test in rats; assay type: in vivo; conditions: for ED50: Rattus norvegicus, read-out: anti-inflammatory action rats ED50, carrageenin oedema
Text: (§1) The anti-inflammatory action has been studied in adult rats by using the carragenin oedema test (Proc. Soc. exp. Biol. Med. 1962, 111 : 544) and the granuloma from an extraneous substance (J. Amer. Pharm. Ass., Sci. Ed. 1957, 46 : 515).
(§2) Whenever possible the ED50 values have been calculated.

adult rats [3] = test: anti-inflammatory action, granuloma from an extraneous substance in rats; assay type: in vivo; conditions: Rattus norvegicus, 168 h; oral × 7 days
Text: as §1, §2

rats [4] = test: antipyretic action in rats; assay type: in vivo; conditions: oral
Text: (§3) The analgesic action has been assessed in rats (Arch. int. Pharmacodyn. 1957, 111 : 409) and in mice (Boll. Chim. Farm. 1968, 107 : 29), the antipyretic action in rats (J. Pharmacol. exp. Ther. 1963, 141 : 369); and the anti-cough action in guinea pigs made to inhale 4% ammonia.
as §2

guinea pigs = test: anti-cough action in guinea pigs made to inhale 4% ammonia; assay type: in vivo; conditions: intraperitoneal
Text: as §3, §2

rats [5] = test: analgesic action, Randall Selitto, rats; assay type: in vivo; conditions: oral; for ED50: Rattus norvegicus
Text: as §3, §2

mice [6] = test: analgesic action, stretching acetic acid, mice; assay type: in vivo; conditions: oral; for ED50: Mus musculus
Text: as §3, §2

mice [7] = test: analgesic action, tail clip, mice; assay type: in vivo; conditions: oral
Text: as §3, §2

rats [8] = test: anti-ulcer action in rats kept without food for 24 hours and motionless for 4 hours; assay type: in vivo; conditions: 10 mg/kg intraperitoneal
Protocol: The anti-ulcer property has been studied in rats kept without food for 24 hours and motionless for 4 hours (Therapie 1960, 15 : 1096).

[9] = intraperitoneal, 200 mg/kg maximum dose

SMILES: O=C(O)Cc1sc(Nc2ccccc2)nc1-c1ccc(Cl)cc1 [LR 330, (2-phenylamino-4-p-chlorophenyl-thiazol-5-yl)-acetic acid]
- LD50 (LD50 mice; ip, intraperitoneal): > 1000 mg/kg
- LD50 (LD50 mice; oral): > 3000 mg/kg
- LD50 (LD50 rats; ip, intraperitoneal): > 1000 mg/kg
- LD50 (LD50 rats; po): > 2000 mg/kg
- LD50 (rats [1]): > 3000 mg/kg
- ED50 (adult rats [2]; ip, intraperitoneal): 75 mg/kg
- ED50 (adult rats [2]; oral): 400 mg/kg
- ED50 (adult rats [3]): 400 mg/kg
- anti-pyretic action, effect at maximum dose administered (rats [4]; 200 mg/kg maximum dose): .phi.
- anti-coughing action, effect at maximum dose administered (guinea pigs; 200 mg/kg maximum dose): .phi.
- ED50 (rats [5]): 200 mg/kg
- ED50 (mice [6]): 75 mg/kg
- tail clip, effect at maximum dose administered (mice [7]; 200 mg/kg maximum dose): .phi.

SMILES: Nc1nc(-c2ccc(Cl)cc2)c(CC(=O)O)s1 [LR 331, (2-amino-4-p-chlorophenyl-thiazol-5-yl)-acetic acid]
- LD50 (LD50 mice; ip, intraperitoneal): 800 mg/kg
- LD50 (LD50 mice; oral): > 5000 mg/kg
- LD50 (LD50 rats; ip, intraperitoneal): 840 mg/kg
- LD50 (LD50 rats; po): > 1000 mg/kg
- ED50 (adult rats [2]; ip, intraperitoneal): 140 mg/kg
- ED50 (adult rats [2]; oral): 300 mg/kg
- ED50 (adult rats [3]): 300 mg/kg
- anti-pyretic action, effect at maximum dose administered (rats [4]; 400 mg/kg maximum dose): .phi.
- anti-coughing action, effect at maximum dose administered (guinea pigs; 50 mg/kg maximum dose): 17%
- Randall Selitto, effect at maximum dose administered (rats [5]; 175 mg/kg maximum dose): 15%
- ED50 (mice [6]): 132 mg/kg
- tail clip, effect at maximum dose administered (mice [7]; 175 mg/kg maximum dose): .phi.
- anti-ulcer action, protected rats in % (rats [8]): 30%
- anti-ulcer action, reduction in number of ulcers in % (rats [8]): 52%

SMILES: O=C(O)Cc1sc(NC(=O)Nc2ccccc2)nc1-c1ccc(Cl)cc1 [LR 364, [2-(phenylamino-carbonylamino)-4-p-chlorophenyl-thiazol-5-yl]-acetic acid]
- LD50 (LD50 mice; ip, intraperitoneal): > 1000 mg/kg
- carrageenin oedema, effect at maximum dose administered (adult rats [2]; [9]): .phi.
- anti-coughing action, effect at maximum dose administered (guinea pigs; 200 mg/kg maximum dose): .phi.
- stretching acetic acid, effect at maximum dose administered (mice [6]; 200 mg/kg maximum dose): 31%
- tail clip, effect at maximum dose administered (mice [7]; 200 mg/kg maximum dose): .phi.
- anti-ulcer action, protected rats in % (rats [8]): 30%
- anti-ulcer action, reduction in number of ulcers in % (rats [8]): 59%

SMILES: O=C(O)Cc1sc(Nc2c(Cl)cccc2Cl)nc1-c1ccccc1 [LR 396, [2-n-(2', 6'-dichlorophenyl)-amino-4-phenyl-thiazol-5-yl]-acetic acid]
- LD50 (LD50 mice; ip, intraperitoneal): > 1000 mg/kg
- carrageenin oedema, effect at maximum dose administered (adult rats [2]; [9]): .phi.
- stretching acetic acid, effect at maximum dose administered (mice [6]; 100 mg/kg maximum dose): 26%
- anti-ulcer action, protected rats in % (rats [8]): 40%
- anti-ulcer action, reduction in number of ulcers in % (rats [8]): 45%

SMILES: CCN(CC)c1nc(-c2ccc(Cl)cc2)c(CC(=O)O)s1 [LR 407, (2-n,n-diethylamino-4-p-chlorophenyl-thiazol-5-yl)-acetic acid]
- LD50 (LD50 mice; ip, intraperitoneal): 400 mg/kg
- LD50 (LD50 mice; oral): 1260 mg/kg
- LD50 (LD50 rats; ip, intraperitoneal): 385 mg/kg
- LD50 (LD50 rats; po): > 1500 mg/kg
- ED50 (adult rats [2]; ip, intraperitoneal): 60 mg/kg
- ED50 (adult rats [2]; oral): 120 mg/kg
- ED50 (adult rats [3]): 170 mg/kg
- ED50 (rats [4]; Rattus norvegicus, read-out: anti-pyretic action rats ED50): 73 mg/kg
- ED50 (guinea pigs; Cavia porcellus, ip, read-out: anti-coughing action guinea pigs ED50): 34 mg/kg
- ED50 (rats [5]): > 400 mg/kg
- ED50 (mice [6]): 26 mg/kg
- ED50 (mice [7]; Mus musculus): 48 mg/kg
- anti-ulcer action, reduction in number of ulcers in % (rats [8]): 23%

SMILES: CCN(CC)CCNC(=O)Cc1sc(N)nc1-c1ccc(Cl)cc1 [LR 450, (2-amino-4-p-chlorophenyl-thiazol-5-yl)-N-(N',N' diethylaminoethyl)-acetamide]
- LD50 (LD50 mice; ip, intraperitoneal): 43 mg/kg
- LD50 (LD50 mice; oral): 238 mg/kg
- LD50 (LD50 rats; ip, intraperitoneal): 47 mg/kg
- LD50 (LD50 rats; po): 915 mg/kg
- carrageenin oedema, effect at maximum dose administered (adult rats [2]; intraperitoneal, 6 mg/kg maximum dose): 36%
- carrageenin oedema, effect at maximum dose administered (adult rats [2]; oral, 100 mg/kg maximum dose): 35%
- ED50 (adult rats [3]): 100 mg/kg
- anti-pyretic action, effect at maximum dose administered (rats [4]; 100 mg/kg maximum dose): 38%
- anti-coughing action, effect at maximum dose administered (guinea pigs; 12 mg/kg maximum dose): .phi.
- Randall Selitto, effect at maximum dose administered (rats [5]; 100 mg/kg maximum dose): 18%
- stretching acetic acid, effect at maximum dose administered (mice [6]; 100 mg/kg maximum dose): 27%
- tail clip, effect at maximum dose administered (mice [7]; 50 mg/kg maximum dose): .phi.
- anti-ulcer action, protected rats in % (rats [8]): 65%
- anti-ulcer action, reduction in number of ulcers in % (rats [8]): 69%

— US3933838A, “5-Substituted 2-amino-4-arylthiazoles” (Instituto Luso Farmaco d'Italia S.r.l., priority 1972, dated 1976)
